± gives the expanded uncertainty stated by the source.
Assays:
[1] = Molar enthalpy of transition or fusion; conditions: DSC
[2] = for Normal melting temperature: DTA; for Triple point temperature: Crystal 2, DSC

SMILES | Molar enthalpy of transition or fusion ([1]; Crystal) [kcal/mol] | Normal melting temperature ([2]; Crystal) [°C] | Molar enthalpy of transition or fusion ([1]; Crystal 1) [kcal/mol] | Molar enthalpy of transition or fusion ([1]; Crystal 2) [kcal/mol] | Normal melting temperature ([2]; Crystal 1) [°C] | Triple point temperature [2] [K]
CCCCCCCCCCCCCCCCCCCCO [1-eicosanol] | 17 ± 2.08 | 63.8 ± 0.53 |  |  |  | 
CCCCCCCCCCCCCCCCCCO [1-octadecanol] |  |  | 12.4 ± 1.51 | 6.54 ± 0.789 | 56.2 ± 0.53 | 319.35 ± 0.81
c1ccc(-c2ccccc2)cc1 [biphenyl] | 4.66 ± 0.574 | 68.0 ± 0.53 |  |  |  | 
CCCCCCCCCCCCCCCCCCCC [eicosane] | 17.3 ± 2.1 | 35.03 ± 0.53 |  |  |  | 
CCCCCCCCCCCCCCCCCCCCCCCC [tetracosane] |  |  | 14.6 ± 1.77 | 8.08 ± 0.98 | 48.06 ± 0.53 | 319.35 ± 0.81

— the NIST ThermoML archive (doi:10.1016/j.fluid.2017.03.012)
